{"source": "patent US12186289B2", "about": "“Compositions for feeding a pregnant animal” (Nutreco IP Assets B.V., priority 2018, dated 2025)", "test_system": "sows", "test": "Example 1: top dress with a single ingredient fed to pregnant sows from day 80 of gestation to parturition; colostrum intake and gain of litters", "format": "in vivo, pigs", "settings": "for Total colostrum intake per litter / Average daily gain to day 7, kg per litter: corrected for litter size, sorbic acid 5 g; for Total colostrum intake per litter: 100 g/day top dress, day 80 of gestation up to parturition, betaine 3 g daily, estimated by Theil et al. algorithm; for Average daily gain to day 7, kg per litter: betaine 3 g daily in 100 g top dress", "data": [{"smiles": "CC=CC=CC(=O)O", "note": "[Sorbic acid, 2,4-hexadienoic acid]", "values": [{"measurement": "Average daily gain to day 7 compared to the control (in words)", "value": "same result as the control"}, {"measurement": "Colostrum intake per litter compared to the control (in words)", "value": "slightly lower"}, {"measurement": "Total colostrum intake per litter", "value": 6227, "unit": "g"}, {"measurement": "Average daily gain to day 7, kg per litter", "value": 18.2, "unit": "kg per litter"}]}, {"smiles": "C[N+](C)(C)CC(=O)[O-]", "note": "[Betaine, trimethylglycine]", "values": [{"measurement": "Average daily gain to day 7 compared to the control (in words)", "value": "negative effect"}, {"measurement": "Colostrum intake per litter compared to the control (in words)", "value": "substantially lower"}, {"measurement": "Total colostrum intake per litter", "value": 5784, "unit": "g"}, {"measurement": "Average daily gain to day 7, kg per litter", "value": 16.1, "unit": "kg per litter"}]}]}
